Test results as given in patent US6906098B2, “Mixed steroidal 1,2,4,5-tetraoxane compounds and methods of making and using thereof” (priority 2002, dated 2005).
Converted amounts (≈) assume the structure as drawn. “And” between values parts separate entries of the source, which are not always exact repeats. Equal values may be shown once. Read-outs that look alike come from different tables or passages of the source.

How the values were obtained:
[1] = test system: Mycobacterium tuberculosis H37Rv (ATCC 27294); assay: Primary screen, Microplate Alamar Blue Assay (MABA), percent inhibition; format: cell-based; conditions: primary screening at 6.25 μg/ml; for inhibition at 6.25 µg/mL: Mycobacterium tuberculosis
Description: (§1) The activity of the compounds of the present invention against Mycobacterium tuberculosis was determined using the following assays conducted by the National Institute of Allergy and Infectious Diseases (NIAID) supports a TB drug acquisition and screening program, the TAACF.
To determine the percent inhibition the following assay was conducted. Primary screening was conducted at 6.25 μg/ml (or the molar equivalent of highest molecular weight compound in a given series of congeners) against Mycobacterium tuberculosis H37Rv (ATCC 27294) in BACTEC 12B medium using the Microplate Alamar Blue Assay (MABA). See Collins, L. and S. G. Franzblau. 1997. Microplate alamar blue assay versus BACTEC 460 system for high-throughput screening of compounds against Mycobacterium tuberculosis and Mycobacterium avium. Antimicrob Agents Chemother 41:1004-9, which is herein incorporated by reference.
Minimum compound requirements: 1.0 mg.

[2] = test system: Plasmodium falciparum chloroquine-resistant strain W2; assay: microbe, parasite or virus in culture; format: cell-based; conditions: for IC50: Plasmodium falciparum, W2, 66 h, read-out: Strain W2 IC50, growth inhibition, chloroquine-resistant strain W2, 66 h incubation; for Strain W2 IC50: growth inhibition, chloroquine-resistant strain W2, 66 h incubation
M. tuberculosis H37Rv = assay: Minimum inhibitory concentration (MIC) in the MABA; format: cell-based, Mycobacterium tuberculosis
Description: as §1
2. Minimum Inhibitory Concentration (MIC)
The MIC is defined as the lowest concentration effecting a reduction in fluorescence of 90% relative to controls. Minimum compound requirements: 1.0 mg.

[3] = test system: D6 and W2 P. falciparum clones; format: cell-based, Plasmodium falciparum; conditions: for Resistance Index: IC50 (W2)/IC50 (D6) ratio
[4] = test system: Plasmodium falciparum chloroquine-susceptible strain D6; assay: In vitro antimalarial drug susceptibility assay (radiolabeled hypoxanthine incorporation), strain D6; format: cell-based; conditions: for IC50: Plasmodium falciparum, D6, 66 h, read-out: Strain D6 IC50, growth inhibition, chloroquine-susceptible strain D6, 66 h incubation; for Strain D6 IC50: growth inhibition, chloroquine-susceptible strain D6, 66 h incubation
[5] = Table 5, Alamar assay, read-out: % Inhib
[6] = Mycobacterium tuberculosis, H37RV, Table 5, Alamar assay, M. tuberculosis H37Rv, read-out: MIC
[7] = Table 5, Alamar assay, M. tuberculosis H37Rv

Compound	inhibition at 6.25 µg/mL [1, 5] [%]	IC50 [2] [µg/mL]	MIC (M. tuberculosis H37Rv; [6]) [µg/mL]	Resistance Index [3]	IC50 [4] [µg/mL]	inhibition at 6.25 µg/mL ([1]; Table 3, H37Rv, read-out: Inhibition (%)) [%]	Strain W2 IC50 [2] [µg/mL]	MIC (M. tuberculosis H37Rv; Mycobacterium tuberculosis, H37RV, Table 3, H37Rv, read-out: MIC)	Strain D6 IC50 [4] [µg/mL]	% Inhib ([1]; Table 5, Alamar assay) [%]	MIC (M. tuberculosis H37Rv; [7]) [µg/mL]	antimalarial activity in words ([3]; D6 and W2 clones, Table 2)
CC(=O)O[C@H]1CC2C(C3CC[C@H](C(C)CCC(=O)O)[C@]31C)[C@H](OC(C)=O)C[C@@H]1CC3(CC[C@]21C)OOC1(CCCCC1C)OO3 (stereo partly drawn) [9d/1C16, 7α,12α-Diacetoxy-5β-cholan-24-oic acid-3-spiro-6′-(1′,2′,4′,5′-tetraoxacyclohexane)-3′-spiro-1″-(2″-methyl)cyclohexane]	0	0.0238 (≈ 0.0375 µM)	> 6.25	0.56	0.0429 (≈ 0.0676 µM)	–	–	–	–	–	–	–
CC(=O)O[C@H]1CC2C(C3CC[C@H](C(C)CCC(=O)O)[C@]31C)[C@H](OC(C)=O)C[C@@H]1CC3(CC[C@]21C)OOC1(CCC(C)CC1)OO3 (stereo partly drawn) [9g/1C17]	21	–	> 6.25	0.64	–	21	0.00062	> 6.25 µg/mL and > 9.84 µM	0.00097	–	–	–
CC(=O)O[C@H]1CC2C(C3CC[C@H](C(C)CCC(=O)O)[C@]31C)[C@H](OC(C)=O)C[C@@H]1CC3(CC[C@]21C)OOC1(CCC(C)CC1)OO3 (stereo partly drawn) [9h/1C18]	–	–	–	0.57	–	–	0.01126	–	0.01974	34	>6.25	–
CCCNC(=O)CCC(C)[C@H]1CCC2C3C(C[C@H](OC(C)=O)[C@@]21C)[C@@]1(C)CCC2(C[C@H]1C[C@H]3OC(C)=O)OOC1(CCCCC1C)OO2 (stereo partly drawn) [16/1C25, N-(n-Propyl)-7α,12α-diacetoxy-5β-cholan-24-amide-3-spiro-6′-(1′,2′,4′,5′-tetraoxacyclohexane)-3′-spiro-1″-(2″-methyl)cyclohexane]	87	0.00628 (≈ 0.00929 µM)	> 6.25	0.71	0.00889 (≈ 0.0132 µM)	–	–	–	–	–	–	–
CCNC(=O)CCC(C)[C@H]1CCC2C3C(C[C@H](OC(C)=O)[C@@]21C)[C@@]1(C)CCC2(C[C@H]1C[C@H]3OC(C)=O)OOC1(CCC(C)CC1)OO2 (stereo partly drawn) [23/1C32, N-Ethyl-7α,12α-diacetoxy-5β-cholan-24-amide-3-spiro-6′-(1′,2′,4′,5′-tetraoxacyclohexane)-3′-spiro-1″-((4″S)-methyl)cyclohexane]	–	–	–	0.64	–	–	0.00657	–	0.01032	21	>6.25	–
CCCNC(=O)CCC(C)[C@H]1CCC2C3C(C[C@H](OC(C)=O)[C@@]21C)[C@@]1(C)CCC2(C[C@H]1C[C@H]3OC(C)=O)OOC1(CCC(C)CC1)OO2 (stereo partly drawn) [24/1C33, N-(n-Propyl)-7α,12α-diacetoxy-5β-cholan-24-amide-3-spiro-6′-(1′,2′,4′,5′-tetraoxacyclohexane)-3′-spiro-1″-((4″S)-methyl)cyclohexane]	–	–	–	0.98	–	–	0.05611	–	0.05741	0	>6.25	inactive
